Experimental data from PubChem BioAssay AID1996.
Values after ≈ are worked out from the molar mass of the structure shown.

Conditions: buffer; pH 7.4; 200.0 µM

| SMILES | solubility kinetic [µg/mL] |
| --- | --- |
| O=C(NC1CC1)C(Cl)c1ccccc1 (centres undefined) | > 31.5 |
| COc1cccc2sc(/N=C/N(C)C)nc12 | 33.6 (≈ 143 µM) |
| Cc1ccc(C(=O)NCC(=O)NC23CC4CC(CC(C4)C2)C3)cc1 | 4.2 (≈ 12.9 µM) |
| CCOC(=O)c1c(C)nc(C)c(C(=O)OCC)c1-c1ccco1 | > 47.6 |
| Nc1cccc(-c2nc3ncccc3o2)c1 | > 31.7 |
| COC(=O)c1ccccc1SCc1csc(C)n1 | 38.7 (≈ 139 µM) |
| Clc1ccccc1C(c1ccccc1)(c1ccccc1)n1ccnc1 | 3.7 (≈ 10.7 µM) |
| Cc1nc2ncnn2c(C)c1Cc1cccc(C(F)(F)F)c1 | > 45.9 |
| O=C(COc1ccc(Cl)cc1)NCc1ccncc1 | > 41.5 |
| Cc1cccc2nc3c(nc12)CCCC3 | 6.4 (≈ 32.3 µM) |
| COc1ccc(NC(=O)CN(C)CC(=O)NC2CCC(C)CC2)cc1 (centres undefined) | > 52.1 |
| O=C(COC(=O)c1cc(Cl)ccc1O)NCC1CCCO1 (centres undefined) | > 47.1 |
| CCOc1ccccc1C(=S)NC1CCCCC1 | 14.5 (≈ 55 µM) |
| CCOC(=O)N1CCC(N2CCN(c3ccccc3)CC2)CC1.Cl | 51.1 |
| Cc1ccc2nc(CCc3ccc(N)cc3)[nH]c2c1.Cl | > 48.6 |
| Cc1ccc(S(=O)(=O)NC2CCCCCC2)cc1C(N)=O | > 46.6 |
| Cl.O=S(=O)(CCc1ccncc1)c1ccc(Cl)cc1 | > 47.7 |

| SMILES | solubility kinetic [µg/mL] |
| --- | --- |
| O=C(Cc1ccc(Cl)cc1)NCCc1cnc[nH]1 | > 39.6 |
| Cc1cc(C)cc(N2C(=O)C3CCCN3C2=S)c1 (centres undefined) | > 39.1 |
| CC12CCC(C[N+](C)(C)C1)C2(C)C.[I-] (centres undefined) | > 46.4 |
| COc1cc(OC)cc(/C(N)=N/O)c1 | 26.9 (≈ 137 µM) |
| CC(C)CC(=O)Nc1ccc(S(=O)(=O)Nc2nccs2)cc1 | > 50.9 |
| Cc1nc(NC(=O)COC(=O)C2CC2C)c(Cl)cc1Cl (centres undefined) | > 47.6 |
| O=S(=O)(Nc1ccc(Cl)c(Cl)c1)N1CCOCC1 | > 46.7 |
| Cc1ccccc1OC(C)C(=O)NCCCN1CCOCC1 (centres undefined) | 41.5 (≈ 135 µM) |
| COc1ccc(OC)c(N2C(=O)CCCC2=O)c1 | 24.7 (≈ 99.1 µM) |
| Nc1nc(-c2ccc(S(=O)(=O)N3CCCCC3)cc2)cs1 | 6.6 (≈ 20.4 µM) |
| O=[N+]([O-])c1ccc(OCCCOc2cccc3cccnc23)cc1 | 0.6 (≈ 1.85 µM) |
| COc1ccc2ccn(S(=O)(=O)c3ccccc3)c2c1 | 2.9 (≈ 10.1 µM) |
| Nc1c(NCc2ccccc2)c(=O)c1=O | 5.9 (≈ 29.2 µM) |
| Cc1ccccc1C(=O)N1CCN(C(c2ccccc2)c2ccccc2)CC1.Cl | 7.8 |
| N#Cc1ccc(OCC(=O)NCC2COc3ccccc3O2)cc1 (centres undefined) | > 48.7 |
| Nc1ncnc(Nc2ccc(F)c(Cl)c2)n1 | 8.4 (≈ 35.1 µM) |
| O=C1CCN(C(=S)NCCc2ccccc2)CC1 | > 39.4 |

More lines, now with the values ahead:

| solubility kinetic [µg/mL] | SMILES |
| --- | --- |
| 0.7 (≈ 2.23 µM) | Cc1cc(NC(=O)c2cc3cccc([N+](=O)[O-])c3[nH]2)ccc1F |
| 2.4 (≈ 7.71 µM) | O=C(Nc1ccc(N2CCCC2)cc1)c1ccccc1[N+](=O)[O-] |
| > 47.6 | CN(C)CCCNC(=O)c1cc(C(=O)c2ccccc2F)c[nH]1 |
| > 51.7 | O=C(O)c1ccc(N2C(=O)CSC2c2cccc([N+](=O)[O-])c2)cc1 (centres undefined) |
| 12.5 (≈ 28.1 µM) | CC1(c2cccc(Br)c2)NC(=O)N(CC(=O)c2ccc3c(c2)OCCO3)C1=O (centres undefined) |
| > 49.1 | CCOc1ncccc1C(=O)Nc1ccccc1N1CCOCC1 |
| 10.5 (≈ 30.4 µM) | COc1cccc(CNC(=O)c2ccc(C3SCCS3)cc2)c1 |
| 35.2 (≈ 122 µM) | Cc1cccc(NC(=S)NCc2ccc(F)cc2)c1C |
| 2.4 (≈ 7.11 µM) | COc1cccc(NC(=O)NCc2c(-c3ccccc3)noc2C)c1 |
| 2.1 (≈ 6.91 µM) | O=C(NC1CCSc2ccccc21)c1cccc(Cl)c1 (centres undefined) |
| 45.8 (≈ 144 µM) | Cc1onc(-c2ccccc2Cl)c1C(=O)N1CCCCC1C (centres undefined) |
| 33.1 (≈ 130 µM) | CN(C)C(=O)CN1C(=O)c2cccc3cccc1c23 |
| 12.8 (≈ 39.1 µM) | CCn1c(NCCO)nc2c(c1=O)C(C)(CC)Cc1ccccc1-2 (centres undefined) |
| 4.2 (≈ 11.6 µM) | Cc1cccc(N2CCN(C(=O)c3ccc4[nH]c(C)c(C)c4c3)CC2)c1C |
| > 42 | Nc1cc(S(=O)(=O)c2ccc(O)c(N)c2)ccc1O |
| < 0.2 | Cc1cc(Nc2ccc(F)c(F)c2)nc(-c2ccccc2O)n1 |
| > 41.9 | Cn1cc(-c2ccccc2C(=O)O)c(=O)c2ccccc21 |
| < 0.3 | COc1ccc(NC(=O)c2cc(-c3ccc(C)cc3)on2)cc1 |
| > 46.2 | COC(=O)Nc1ccc(S(=O)(=O)Nc2ncccn2)cc1 |
| 52.6 (≈ 133 µM) | CC1CCCN(S(=O)(=O)c2cc(C(=O)NCc3ccco3)ccc2Cl)C1 (centres undefined) |
| 22.5 (≈ 78 µM) | Cc1cc(F)ccc1NC(=S)NCCc1ccccc1 |
| > 41.7 | CN(CC(=O)Nc1ccc(F)cc1)C(=O)C1CCCC1 |
| 2.1 (≈ 7.04 µM) | O=c1[nH]c(/C=C/c2cccc3ccccc23)nc2ccccc12 |
| < 0.4 | O=C(Nc1cccc(F)c1)c1c(O)c2cccc3c2n(c1=O)CCC3 |
| 46.5 (≈ 144 µM) | O=C(COC(=O)c1ccc(O)cc1O)Nc1ccc(Cl)cn1 |
